Experimental data as given in PMC9556364, “The effect of rifampin on the pharmacokinetics of famitinib in healthy subjects” (Cancer Chemotherapy and Pharmacology, 2022).
Several values for one entry are separate records, joined by “and”; a condition that tells them apart may be missing. Equal values may be shown once. Each block holds one molecule with its values, some of them ahead of it.

Assays:
[1] = cited from earlier work; for Decrease of AUC when administered simultaneously with rifampin / Decrease of Cmax when administered simultaneously with rifampin: ref 21 (imitinib), 22 (gefitinib), 23 (erlotinib), 24 (afatinib)
P-gp = biological target: T1, P-gp (Homo sapiens, UniProt P08183); test: In vitro P-gp interaction study in Caco-2 cells; type: in vitro ADME
T1 construct: endogenous in cells; host or cells: Caco-2
T1 sequence (P08183 whole entry): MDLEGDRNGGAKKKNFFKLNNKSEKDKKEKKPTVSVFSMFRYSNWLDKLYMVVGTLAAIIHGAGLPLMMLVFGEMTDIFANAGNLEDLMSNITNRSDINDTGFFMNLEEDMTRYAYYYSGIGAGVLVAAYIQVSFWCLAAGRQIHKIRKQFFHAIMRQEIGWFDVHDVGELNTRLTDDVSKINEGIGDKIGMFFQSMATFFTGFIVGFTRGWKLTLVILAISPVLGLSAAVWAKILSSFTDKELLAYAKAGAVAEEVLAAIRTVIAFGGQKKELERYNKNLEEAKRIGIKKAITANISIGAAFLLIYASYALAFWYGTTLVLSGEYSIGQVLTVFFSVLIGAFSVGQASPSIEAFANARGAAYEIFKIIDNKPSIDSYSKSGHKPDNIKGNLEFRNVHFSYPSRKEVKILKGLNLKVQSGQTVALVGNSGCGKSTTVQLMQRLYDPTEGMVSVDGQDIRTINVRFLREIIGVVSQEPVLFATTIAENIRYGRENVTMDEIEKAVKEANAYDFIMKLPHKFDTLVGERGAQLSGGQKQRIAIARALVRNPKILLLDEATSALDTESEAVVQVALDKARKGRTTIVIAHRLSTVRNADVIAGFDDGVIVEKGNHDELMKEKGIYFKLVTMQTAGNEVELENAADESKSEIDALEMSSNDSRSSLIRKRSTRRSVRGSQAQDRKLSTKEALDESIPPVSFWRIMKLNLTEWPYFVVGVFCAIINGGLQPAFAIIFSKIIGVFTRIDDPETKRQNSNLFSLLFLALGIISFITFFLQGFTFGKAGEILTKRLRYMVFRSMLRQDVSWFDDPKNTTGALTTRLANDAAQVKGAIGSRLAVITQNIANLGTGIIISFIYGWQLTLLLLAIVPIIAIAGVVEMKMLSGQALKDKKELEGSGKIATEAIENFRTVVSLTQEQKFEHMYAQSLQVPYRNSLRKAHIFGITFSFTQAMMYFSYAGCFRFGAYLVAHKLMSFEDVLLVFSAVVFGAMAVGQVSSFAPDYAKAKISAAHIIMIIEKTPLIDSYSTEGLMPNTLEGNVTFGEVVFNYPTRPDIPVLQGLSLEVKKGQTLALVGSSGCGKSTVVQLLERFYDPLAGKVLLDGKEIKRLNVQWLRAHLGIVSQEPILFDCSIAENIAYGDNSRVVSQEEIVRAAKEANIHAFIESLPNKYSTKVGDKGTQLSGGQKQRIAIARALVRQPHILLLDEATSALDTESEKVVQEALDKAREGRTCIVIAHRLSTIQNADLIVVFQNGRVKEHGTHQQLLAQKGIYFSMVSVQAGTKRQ
Excerpt: Except as a strong CYP3A inducer, rifampin is also recognized as a substrate and inducer of permeability glycoprotein (P-gp), an important ATP-binding cassette transporter, upon multiple dosing. […] Therefore, the interaction between famitinib and P-gp as well as OATP needs to be considered, to evaluate whether the changes of famitinib exposure caused by the strong CYP3A inducer are affected.

[2] = cited from earlier work
CYP3A4 = tested on: CYP3A4; set-up: method as in PMID 23126373; conditions: recombinant human isozymes, microsomal chemical inhibition; cited from earlier work
[3] = Safety and tolerability (treatment emergent adverse events, CTCAE v5.0) in the DDI study; conditions: for Subjects with treatment-related TEAEs: famitinib alone Days 1–9 (1/21), rifampin alone Days 10–15 (3/21), combination Days 16–23 (4/20)
Method: Safety and tolerability were evaluated by monitoring vital signs, physical examination, laboratory tests, electrocardiogram (ECG) and adverse events (AEs). Vital signs, including body temperature, blood pressure (BP) and heart rate, were measured and ECG were performed during baseline period, before drug administration and at 4, 24, 48, 192 h after famitinib administration. Clinical laboratory tests were conducted at screening, day 9, 15, and prior to discharge. AEs, including all subjective symptoms reported by subjects and objective signs observed by clinical investigators, were collected after dosing throughout the study.
Safety parameters of the safety analysis sets were summarized using descriptive statistics. AEs were graded according to Common Terminology Criteria for Adverse Events (CTCAE, version 5.0) and coded using Medical Dictionary for Regulatory Activities (MedDRA, version 19.0) System Organ Class (SOC) and Preferred Terms (PT).

[4] = Drug-drug interaction study: plasma pharmacokinetics of single oral famitinib 25 mg alone and with steady-state rifampin 600 mg once daily (LC-MS/MS, noncompartmental analysis); conditions: for CL/F / AUC(0-t) / AUC(0-inf) / Cmax / k el: geometric mean (geometric CV, %); for AUC(0-t): AUC0–t; for AUC(0-inf): AUC0–∞; for Tmax: median (min, max); for k el: λz
Method: The DDI study was an open-label, self-contrast study comprising the following two periods: period 1 (Days 1–9), administration of a single oral dose of famitinib 25 mg alone in the morning of study day 1; period 2 (Days 10–23), repeated administration of oral rifampin 600 mg once daily for 14 days in the morning of days 10–23, and co-administration of a single dose of famitinib 25 mg on Day 16. […] In the two periods, oral doses of famitinib were administered after an overnight fast (at least 10 h) with 240 mL room-temperature water. Subjects were forbidden to drink water within 1 h before and after taking famitinib, and the lunch and dinner were provided at 4 h and 8 h,, respectively, post-drug administration (Day 1, 16). In the second period, subjects received rifampin in the fasting state with 240 mL water and had regular meals 1 h after the dose. Cigarettes, caffeinated drinks and alcoholic products were prohibited during the whole trial period, and when the subjects stayed in the study center (Days 1–4, 10–23), the only food permitted was prepared and provided at predetermined times by the researchers.
Samples were centrifuged within 1 h at 1500xg for 10 min at 4℃ to separate the plasma, which was divided into two aliquots (drug monitoring at least 800ul and backup) and stored at – 80 °Cuntil analysis.
Plasma concentrations of famitinib were analysed using a validated liquid chromatography-tandem mass spectrometry (LC–MS/MS) method [9, 15] at Frontage Laboratories Co., Ltd (Shanghai, China). The calibration curve for famitinib covered ranges of 0.050-100 ng/ml. The low limit of qualification (LLOQ) was 0.050 ng/ml.
Pharmacokinetic (PK) parameters for famitinib in plasma were estimated by noncompartmental analysis using Phoenix WinNonlin (version 7.0, Pharsight Corporation, St Louis, MO, USA). The primary endpoints were the maximum plasma famitinib concentration (Cmax), the area under the plasma concentration–time curve from time 0 to the last measured time point (AUC0–t), and the area under the plasma concentration–time curve from time 0 to infinity (AUC0–∞). The secondary PK parameters included time to Cmax (Tmax) and the elimination half-life (T1/2), the terminal exponential rate constant (λz), the apparent total body clearance (CL/F). Cmax and Tmax were observed directly from the original concentration–time data.
All subjects who received the study drug and for whom at least one PK parameter data was available were included in the PK analysis sets. The safety analysis sets included subjects who received at least one dose of famitinib or rifampin. Statistical analysis was performed using SAS 9.4 (SAS Inc., Cary, NC, USA). […] The measurement data were expressed as mean ± standard deviation (SD), and categorical variables were described by the percentage.

[5] = healthy volunteers, vs sunitinib alone
[6] = famitinib 25 mg with rifampin 600 mg vs alone
[7] = famitinib + rifampin period, individual subjects, LLOQ 0.050
[8] = famitinib alone period, individual subjects
[9] = male, human, plasma, po, 25 mg, famitinib 25 mg + rifampin, N = 20
[10] = male, human, plasma, po, 25 mg, famitinib 25 mg alone, N = 21

SMILES: CCN(CC)CCNC(=O)c1c(C)[nH]c(/C=C2\C(=O)Nc3ccc(F)cc32)c1C [sunitinib]
Fold reduction in AUC on coadministration with rifampin [1, 5]: 4.8 fold
Fold reduction in Cmax on coadministration with rifampin [1, 5]: 2.3 fold

CL/F ([4]; famitinib 25 mg + rifampin, N = 20): 61.4 (16.5) L/h
CL/F ([4]; famitinib 25 mg alone, N = 21): 18.9 (18.0) L/h
Decrease of geometric mean AUC0–t in the presence of rifampin [4, 6]: 69%
Decrease of geometric mean AUC0–∞ in the presence of rifampin [4, 6]: 69%
Decrease of geometric mean Cmax in the presence of rifampin [4, 6]: 48%
Plasma concentration of famitinib, 144h [4, 7]: BLQ<0.050 ng / mL
Plasma concentration of famitinib, 192h [4, 7]: BLQ<0.050 ng / mL
Plasma concentration of famitinib, before dosing [4, 7]: BLQ<0.050 ng / mL
Plasma concentration of famitinib, before dosing ([4]; famitinib alone period, individual subjects, LLOQ 0.050): BLQ<0.050 ng / mL
concentration at 6 h ([4]; human, plasma, oral, 25 mg, Plasma concentration of famitinib, famitinib alone period, individual subjects): 44.3 ng/mL
concentration at 8 h ([4]; human, plasma, oral, 25 mg, Plasma concentration of famitinib, 8h, famitinib alone period, individual subjects): 42.1 ng/mL
concentration at 12 h ([4]; human, plasma, oral, 25 mg, Plasma concentration of famitinib, 12h, famitinib alone period, individual subjects): 22.5 ng/mL
concentration at 24 h ([4]; human, plasma, oral, 25 mg, Plasma concentration of famitinib, 24h, famitinib alone period, individual subjects): 14 ng/mL
concentration at 48 h ([4]; human, plasma, oral, 25 mg, Plasma concentration of famitinib, 48h, famitinib alone period, individual subjects): 7.26 ng/mL
concentration at 6 h ([4]; human, plasma, oral, Plasma concentration of famitinib, famitinib + rifampin period, individual subjects): 22 ng/mL
concentration at 144 h ([4]; human, plasma, oral, Plasma concentration of famitinib, 144h, famitinib + rifampin period, individual subjects, LLOQ 0.050): 0.063 ng/mL
half-life ([4]; male, human, plasma, po, 25 mg): 33.9 h
AUC(0-t) [4, 9]: 405 ng·h/mL
AUC(0-t) [4, 10]: 1300 ng·h/mL
AUC(0-inf) [4, 9]: 407 ng·h/mL
AUC(0-inf) [4, 10]: 1320 ng·h/mL
Cmax ([4]; male, human, plasma, po, 25 mg, famitinib 25 mg + steady-state rifampin 600 mg once daily, N = 20): 20.1 ng/mL
Cmax ([4]; male, human, plasma, po, 25 mg, famitinib 25 mg single oral dose alone, N = 21): 38.7 ng/mL
Tmax [4, 9]: 5.5 h
Tmax [4, 10]: 6 h
k el [4, 9]: 1.08e-05 s⁻¹
k el [4, 10]: 5.83e-06 s⁻¹
SMILES: CCN(CC)CCN1CCc2[nH]c(/C=C3\C(=O)Nc4ccc(F)cc43)c(C)c2C1=O [famitinib, Famitinib malate]
P-gp substrate, inducer or inhibitor (P-gp): neither a substrate, an inducer or inhibitor
Mean time to maximum concentration (Tmax) ([2]; 25 mg famitinib, healthy subjects): 5.9 ± 3.8 h
Time of peak concentration (Cmax) after a single oral administration ([2]; 4–27 mg famitinib, cancer patients): 3.3 to 5.3 h
Effect of food on the pharmacokinetics [2]: minimal effect
Accumulation ratio (Day28/Day1) of AUC0–24 h ([2]; continuous dosing): 2.53
Accumulation ratio (Day28/Day1) of Cmax ([2]; continuous dosing): 2.15
Elimination via biliary-fecal route ([2]; human): approximately 56.3 % of the administered dose
Pathway most important to metabolic clearance (CYP3A4): CYP3A4-mediated N-desethylation is most important
Subjects with treatment-related TEAEs [3]: 4.8%
Tolerability ([3]; single dose famitinib 25 mg, alone and in combination with multiple doses of rifampin): well tolerated
Subjects reporting treatment emergent adverse events (TEAEs) ([3]; whole study, 8/21 subjects, all grade 1–2): 38.1%
Plasma concentration of famitinib, 1h [4, 8]: 12.172 ng/mL and 10.070 ng/mL and 23.342 ng/mL and 11.725 ng/mL and 7.749 ng/mL and 13.952 ng/mL and 8.453 ng/mL and 16.495 ng/mL and 11.559 ng/mL and 9.713 ng/mL and 14.845 ng/mL and 9.794 ng/mL and 13.641 ng/mL and 7.456 ng/mL and 5.075 ng/mL
Plasma concentration of famitinib, 2h [4, 8]: 19.290 ng/mL and 11.263 ng/mL and 27.171 ng/mL and 17.301 ng/mL and 11.179 ng/mL and 19.862 ng/mL and 16.456 ng/mL and 17.403 ng/mL and 19.212 ng/mL and 16.738 ng/mL and 25.161 ng/mL and 11.223 ng/mL and 13.668 ng/mL and 15.742 ng/mL and 7.198 ng/mL
Plasma concentration of famitinib, 3h [4, 8]: 24.870 ng/mL and 24.032 ng/mL and 35.652 ng/mL and 17.196 ng/mL and 13.891 ng/mL and 21.638 ng/mL and 20.909 ng/mL and 26.523 ng/mL and 20.328 ng/mL and 19.378 ng/mL and 25.658 ng/mL and 13.587 ng/mL and 23.069 ng/mL and 22.375 ng/mL and 13.449 ng/mL
Plasma concentration of famitinib, 4h [4, 8]: 28.028 ng/mL and 28.292 ng/mL and 40.156 ng/mL and 20.043 ng/mL and 16.081 ng/mL and 19.854 ng/mL and 21.159 ng/mL and 24.187 ng/mL and 24.994 ng/mL and 22.750 ng/mL and 36.134 ng/mL and 11.368 ng/mL and 18.316 ng/mL and 23.577 ng/mL and 15.599 ng/mL
Plasma concentration of famitinib, 5h [4, 8]: 34.268 ng/mL and 39.992 ng/mL and 39.262 ng/mL and 34.731 ng/mL and 23.153 ng/mL and 38.641 ng/mL and 37.246 ng/mL and 34.840 ng/mL and 39.863 ng/mL and 36.023 ng/mL and 38.105 ng/mL and 23.878 ng/mL and 27.444 ng/mL and 47.892 ng/mL
Plasma concentration of famitinib, 6h [4, 8]: 43.837 ng/mL and 41.218 ng/mL and 38.122 ng/mL and 30.476 ng/mL and 37.003 ng/mL and 33.261 ng/mL and 32.099 ng/mL and 44.461 ng/mL and 40.451 ng/mL and 44.411 ng/mL and 30.717 ng/mL and 31.790 ng/mL and 38.642 ng/mL
Plasma concentration of famitinib, 8h [4, 8]: 36.756 ng/mL and 37.274 ng/mL and 37.931 ng/mL and 31.453 ng/mL and 34.655 ng/mL and 28.227 ng/mL and 26.193 ng/mL and 38.443 ng/mL and 33.433 ng/mL and 40.722 ng/mL and 30.892 ng/mL and 27.531 ng/mL and 41.552 ng/mL

SMILES: CO[C@H]1/C=C/O[C@@]2(C)Oc3c(C)c(O)c4c(O)c(c(/C=N/N5CCN(C)CC5)c(O)c4c3C2=O)NC(=O)/C(C)=C\C=C\[C@H](C)[C@H](O)[C@@H](C)[C@@H](O)[C@@H](C)[C@H](OC(C)=O)[C@@H]1C [rifampin, Rifampicin]
Subjects with treatment-related TEAEs [3]: 14.3%

SMILES: CN(C)C/C=C/C(=O)Nc1cc2c(Nc3ccc(F)c(Cl)c3)ncnc2cc1O[C@H]1CCOC1 [afatinib]
Decrease of AUC when administered simultaneously with rifampin [1]: 34%
Decrease of Cmax when administered simultaneously with rifampin [1]: 22%

SMILES: Cc1ccc(NC(=O)c2ccc(CN3CCN(C)CC3)cc2)cc1Nc1nccc(-c2cccnc2)n1 [imitinib]
Decrease of AUC when administered simultaneously with rifampin [1]: 74%
Decrease of Cmax when administered simultaneously with rifampin [1]: 54%

SMILES: C#Cc1cccc(Nc2ncnc3cc(OCCOC)c(OCCOC)cc23)c1 [erlotinib]
Decrease of AUC when administered simultaneously with rifampin [1]: 69%
Decrease of Cmax when administered simultaneously with rifampin [1]: 39%

SMILES: COc1cc2ncnc(Nc3ccc(F)c(Cl)c3)c2cc1OCCCN1CCOCC1 [gefitinib]
Decrease of AUC when administered simultaneously with rifampin [1]: 83%
Decrease of Cmax when administered simultaneously with rifampin [1]: 65%
